Assay results published in patent US20260049104A1, “PEPTIDES WITH ANTIMICROBIAL PROPERTIES” (priority 2022, published 2026).
In brackets after ≈: the same amount, converted by molar mass. Like-named read-outs stand apart in the source and are kept apart here.

Experiments:
[1] = tested on: Pseudomonas aeruginosa; format: cell-based; conditions: Table 15, unit inferred
Description: The experiments were repeated three times.

[2] = tested on: Escherichia coli; conditions: Table 15, unit inferred
Procedure: (§1) MIC screening of the peptides against a panel of ATCC and clinical strains was performed using broth microdilution method.^1 Briefly, peptides stock solutions in DMSO (0.1/G TFA) were diluted into Mueller Hinton Broth (MHB), followed by two-fold serial dilution in a 96-well plate. Bacteria culture in mid-log phase was diluted into MHB to yield […] colony-forming units (CFU)/mL. Equal volume of the starting inoculum was added to the peptide samples, then incubated for 18-20 h (37° C., 120 rpm). OD600 of the samples was then measured using Tecan Infinite M200 (TECAN, Männedorf, Switzerland). MIC is defined as the lowest peptide concentration to achieve more than 90% reduction in OD600 relative to the drug-free control. The experiments were repeated three times. Colistin-resistant clinical isolates are a kind gift from Dr. Jeanette Koh (National University Hospital, Singapore). Multidrug-resistant clinical isolates are a kind gift from Dr. Lakshminarayanan Rajamani (Singapore Eye Research Institute, Singapore).
(§2) Kanamycin and ampicillin were used as antibacterial control agents. […] Then, sequential 2-fold serial dilutions of the mix were diluted in 50 μL MH broth and 50 μL cell cultures were added to wells. […] All assays were carried out in triplicate.

[3] = tested on: Acinetobacter baumannii; conditions: Table 15, unit inferred
Procedure: as §1, §2

[4] = tested on: Klebsiella pneumoniae; conditions: for MIC value: Table 15, unit inferred
Procedure: as §1, §2

[5] = tested on: Enterobacter cloacae; conditions: Table 15, unit inferred
Procedure: as §1, §2

[6] = tested on: Gram-positive and Gram-negative bacteria; conditions: panel of E. coli, K. pneumoniae, E. cloacae, A. baumannii, E. faecalis and S. aureus; preliminary screening
Procedure: as §1, §2

[7] = tested on: E. coli M6; conditions: E. coli M6, compared with xenorceptide A2 (2)
Procedure: Resistance development of E. coli M6 against xenorceptide A2 was assessed by serial passaging of the bacteria in broth containing subinhibitory concentrations of the peptide. In brief, bacteria culture at mid-log phase was diluted to 10^5-10^6 CFU/mL in MHB containing 0.25×, 0.5×, 1×, 2×, and 4×MIC of the peptide. […] A new set of peptide concentration range was added to the cultures based on the latest MIC. This process was repeated over 14 days for three independent starting cultures.

[8] = Pseudomonas aeruginosa DR4877/07
[9] = Pseudomonas aeruginosa DR5790/07
[10] = Acinetobacter baumanii ACβA1001
[11] = Acinetobacter baumanii ACβA1002
[12] = Acinetobacter baumanii ACβA1003
[13] = Acinetobacter baumanii ACβA1004
[14] = ATCC 25922, printed under Klebsiella pneumoniae

CC(C)[C@@H]1NC(=O)[C@@H](N)Cc2c[nH]c3cc(ccc23)C(C(N)=O)[C@@H](C(=O)N[C@@H](C)C(=O)N[C@H]2Cc3cccc(c3)C(CCNC(=N)N)[C@@H](C(=O)N[C@H]3Cc4c[nH]c5cc(ccc45)C(CCNC(=N)N)[C@@H](C(=O)N[C@@H](CCCNC(=N)N)C(=O)N[C@@H](Cc4c[nH]c5ccccc45)C(=O)O)NC(=O)[C@H](CO)NC3=O)NC(=O)[C@H](C)NC2=O)NC1=O (stereo partly drawn) [xenorceptide A11]
MIC value ([1]; Pseudomonas aeruginosa DM4150R): 16 mg/L (≈ 9.82 µM)
MIC value ([1]; Pseudomonas aeruginosa DM23376): 16 mg/L (≈ 9.82 µM)
MIC value [1, 8]: 32 mg/L (≈ 19.6 µM)
MIC value [1, 9]: 32 mg/L (≈ 19.6 µM)
MIC value ([2]; Escherichia coli M2): 8 mg/L (≈ 4.91 µM)
MIC value ([2]; Escherichia coli M6): 4 mg/L (≈ 2.46 µM)
MIC value ([2]; Escherichia coli M10): 2 mg/L (≈ 1.23 µM)
MIC value ([2]; Escherichia coli M11): 4 mg/L (≈ 2.46 µM)
MIC value [3, 10]: 16 mg/L (≈ 9.82 µM)
MIC value [3, 11]: 16 mg/L (≈ 9.82 µM)
MIC value [3, 12]: 16 mg/L (≈ 9.82 µM)
MIC value [3, 13]: 16 mg/L (≈ 9.82 µM)
MIC value [4, 14]: 1 mg/L (≈ 0.614 µM)
MIC value ([4]; CRE1006, Klebsiella pneumoniae): 4 mg/L (≈ 2.46 µM)
MIC value ([4]; Klebsiella pneumoniae CRE 1007): 4 mg/L (≈ 2.46 µM)
MIC value ([4]; Klebsiella pneumoniae CRE1008): 4 mg/L (≈ 2.46 µM)
MIC value ([4]; Klebsiella pneumoniae CRE1011): 4 mg/L (≈ 2.46 µM)
MIC value ([4]; Klebsiella pneumoniae CRE1012): 4 mg/L (≈ 2.46 µM)
MIC value ([5]; Enterobacter cloacae CRE1010): 4 mg/L (≈ 2.46 µM)
MIC value ([5]; Enterobacter cloacae CRE1014): 8 mg/L (≈ 4.91 µM)
MIC value ([5]; Enterobacter cloacae CRE1015): 16 mg/L (≈ 9.82 µM)
MIC value ([5]; Enterobacter cloacae CRE1016): 8 mg/L (≈ 4.91 µM)
MIC value ([5]; Enterobacter cloacae CRE1017): 16 mg/L (≈ 9.82 µM)

CC(C)[C@H](NC(=O)[C@H](Cc1c[nH]c2ccccc12)NC(=O)CNC(=O)[C@H](CCC(=O)O)NC(=O)CNC(=O)[C@@H](N)CCCNC(=N)N)C(=O)N[C@@H](CCCNC(=N)N)C(=O)N[C@@H](C)C(=O)N[C@@H](Cc1ccc(O)cc1)C(=O)N[C@H]1Cc2c[nH]c3cc(ccc23)C(CCCN)[C@@H](C(=O)N[C@@H](CCCNC(=N)N)C(=O)N[C@@H](Cc2ccccc2)C(=O)O)NC(=O)[C@H](C)NC1=O (stereo partly drawn) [Compound 25]
antibacterial activity [6]: also active against these test bacteria, but weaker than 24

CC[C@H](C)[C@@H]1NC(=O)[C@@H](NC(=O)[C@H]2NC(=O)[C@H](CC(C)C)NC(=O)[C@@H](NC(=O)[C@H](CCCNC(=N)N)NC(=O)CNC(=O)[C@@H](N)CC(=O)O)Cc3c[nH]c4cc(ccc34)C2CC(N)=O)Cc2c[nH]c3cc(ccc23)C(CCCN)[C@@H](C(=O)N[C@@H](CC(N)=O)C(=O)N[C@@H](Cc2c[nH]cn2)C(=O)O)NC1=O (stereo partly drawn) [Compound 27]
MIC ([4]; Klebsiella pneumoniae ATC 700603, Table 14, preliminary screening): 8 mg/L (≈ 5.52 µM)

CC[C@H](C)[C@H](NC(=O)CNC(=O)[C@H](CC(=O)O)NC(=O)[C@H](CC(=O)O)NC(=O)[C@H](CC(=O)O)NC(=O)[C@H](CO)NC(=O)[C@@H](N)CO)C(=O)N[C@H]1Cc2ccc(cc2)C(CCCN)[C@@H](C(=O)N[C@H](C(=O)N[C@H](C(=O)N[C@H]2Cc3c[nH]c4cc(ccc34)C(CCNC(=N)N)[C@@H](C(=O)N[C@@H](CCCNC(=N)N)C(=O)O)NC(=O)[C@H](CC(=O)O)NC2=O)[C@@H](C)O)[C@@H](C)O)NC(=O)[C@H](Cc2ccccc2)NC1=O (stereo partly drawn) [Compound 22]
antibacterial activity [6]: no activity

CC(C)[C@@H]1NC(=O)[C@@H](N)Cc2c[nH]c3cc(ccc23)C(C(N)=O)[C@@H](C(=O)N[C@@H](C)C(=O)N[C@H]2Cc3cccc(c3)C(CCNC(=N)N)[C@@H](C(=O)N[C@H]3Cc4c[nH]c5cc(ccc45)C(CCCN)[C@@H](C(=O)N[C@@H](CCCNC(=N)N)C(=O)N[C@@H](Cc4c[nH]c5ccccc45)C(=O)O)NC(=O)[C@H](CO)NC3=O)NC(=O)[C@H](C)NC2=O)NC1=O (stereo partly drawn) [xenorceptide A12-1]
MIC value ([1]; Pseudomonas aeruginosa DM4150R): 32 mg/L (≈ 20 µM)
MIC value ([1]; Pseudomonas aeruginosa DM23376): > 32 mg/L
MIC value [1, 8]: 32 mg/L (≈ 20 µM)
MIC value [1, 9]: 32 mg/L (≈ 20 µM)
MIC value ([2]; Escherichia coli M2): 8 mg/L (≈ 5 µM)
MIC value ([2]; Escherichia coli M6): 2 mg/L (≈ 1.25 µM)
MIC value ([2]; Escherichia coli M10): 2 mg/L (≈ 1.25 µM)
MIC value ([2]; Escherichia coli M11): 2 mg/L (≈ 1.25 µM)
MIC value [3, 10]: 8 mg/L (≈ 5 µM)
MIC value [3, 11]: 8 mg/L (≈ 5 µM)
MIC value [3, 12]: 8 mg/L (≈ 5 µM)
MIC value [3, 13]: 8 mg/L (≈ 5 µM)
MIC value [4, 14]: 2 mg/L (≈ 1.25 µM)
MIC value ([4]; CRE1006, Klebsiella pneumoniae): 2 mg/L (≈ 1.25 µM)
MIC value ([4]; Klebsiella pneumoniae CRE 1007): 2 mg/L (≈ 1.25 µM)
MIC value ([4]; Klebsiella pneumoniae CRE1008): 4 mg/L (≈ 2.5 µM)
MIC value ([4]; Klebsiella pneumoniae CRE1011): 4 mg/L (≈ 2.5 µM)
MIC value ([4]; Klebsiella pneumoniae CRE1012): 4 mg/L (≈ 2.5 µM)
MIC value ([5]; Enterobacter cloacae CRE1010): 2 mg/L (≈ 1.25 µM)
MIC value ([5]; Enterobacter cloacae CRE1014): 8 mg/L (≈ 5 µM)
MIC value ([5]; Enterobacter cloacae CRE1015): 16 mg/L (≈ 9.99 µM)
MIC value ([5]; Enterobacter cloacae CRE1016): 8 mg/L (≈ 5 µM)
MIC value ([5]; Enterobacter cloacae CRE1017): 16 mg/L (≈ 9.99 µM)

C[C@H](NC(=O)[C@H]1NC(=O)[C@H](C)NC(=O)[C@@H](N)Cc2ccc(cc2)C1C(N)=O)C(=O)N[C@H](C(=O)N[C@H]1Cc2c[nH]c3cc(ccc23)C(CCCN)[C@@H](C(=O)N[C@@H](CO)C(=O)N[C@@H](Cc2ccccc2)C(=O)O)NC(=O)[C@H](CO)NC1=O)[C@@H](C)O (stereo partly drawn) [Compound 30]
antibacterial activity [6]: no activity

colistin [reference compound]
development of reduced susceptibility in serial passage [7]: readily became less susceptible
